Source: patent US7635779B2, “Oxy substituted flavones as antihyperglycemic and antidyslipidemic agents” (Council of Scientific & Industrial Research, priority 2004, dated 2009)
Several values for one entry are separate records, joined by “and”; a condition that tells them apart may be missing. Equal entries are not always repeated. Where two headings read alike, the source gives them in different places.

Key:
db/db mice = test: Antihyperglycemic activity in db/db mice; assay type: in vivo, mouse; conditions: for % Fall in blood glucose levels, 6 days: day 6; for % Fall in blood glucose levels, 10 days: day 10
From the text: The db/db mouse is a well-characterized model of type II diabetes. The background for the db/db mouse is the C57BL/Ks strain. The major deficiency of the C57BL/KsBom-db mouse (db/db) is lack of a functional leptin receptor. This leads to defective leptin signaling and a complete lack of feedback from leptin. […] The db/db mouse develops NIDDM from around week 10. The disease is stable until week 20, where destruction of pancreatic β-cells can be recognized clinically as decreasing levels of plasma insulin and very severe hyperglycemia. The male mice are more diabetic than female and will normally die earlier. The advantage of using male mice for experimental purposes is that the fluctuations in plasma parameters are less than in the females where the estrogen cycles affects the clinical diabetes mellitus. The optimal age of db/db mice used for experiments will be from week 12 to 18 when they have developed NIDDM with diabetic dyslipidemia but still have functional β-cells in the pancreas. C57BL/KsBom-db mice 12-18 weeks, 40-50 g bred in the animal house of CDRI, Lucknow. 10 male mice were used in the experiments. The mice were housed in groups of 5 individuals in a room controlled for temperature (23+2° C.) and 12/12 hours light/dark cycle (lights on at 6.00 am). Body weight was measured daily from day 1 to day 10. All animals had free access to fresh water and to normal chow except on the days of the postprandial protocol day 6 and during the overnight fast before the OGTT on day 10. Blood glucose was checked every morning up till day 5. On day 6 postprandial protocol was employed, in this method blood glucose was checked at −0.30 min and 0 h. Test compounds were given to the treatment group whereas control group received only gum acacia (1.0%); the blood glucose was again checked at 1, 2, 3, 4 and 6 h post test compound treatment. Finally on day 10 an oral glucose tolerance test (OGTT) was performed after an overnight fasting. Blood glucose was measured at −0.30 min and test drugs were fed, blood glucose was again measured at 0.0 min post treatment, at this juncture glucose solution was given at a dose of 3 gm/kg to all the groups including control group; the profile of blood glucose was checked at 30 min, 60 min, 90 min and 120 min post glucose administration. Quantitative glucose tolerance of each animal was calculated by Area Under Curve (AUC) method (Prism Software). Comparing the AUC of experimental and control groups determined the percentage antihyperglycemic activity. Statistical comparison was made by Dunnett's test.

[1] = test system: triton WR-1339 induced hyperlipidemic rats; test: Triton model, antidyslipidemic activity; assay type: in vivo, rat; conditions: 100 mg/kg oral, plasma after 18 h; for inhibition in vivo at 100 mg/kg: Rattus norvegicus
Method: Male Charles foster rats weighing 200-225 g were divided into control, hyperlipidemic and hyperlipidemic plus drug treated groups containing six animals in each group. Hyperlipidemia was induced by administration of triton WR-1339 (200 mg/kg i.p.). All animals were maintained on a special pellet diet and water ad libitum. Compounds and standard drug were macerated with 0.2% aqueous gum acacia suspension. The suspension was fed orally at the dose of 100 mg/kg simultaneously with triton in drug treated group. The animals of control group received the same amount of gum acacia by similar route of administration. At the end of the experiment, after 18 h, blood was withdrawn from retro orbital plexus and plasma was used for the assay of total cholesterol, phospholipid and triglycerides.
Cholesterol was estimated using the kit provided by Roche Diagnostics. Cholesterol esters are enzymatically hydrolyzed by cholesterol esterase (CE) to cholesterol and free fatty acids. Free cholesterol, including that originally present, is then oxidized by cholesterol oxidase (CO) to cholest-4-en-3-one and hydrogen peroxide. The hydrogen peroxide combines with hydroxy benzoic acid (HBA) and 4-aminoantipyrine (4AAA) in the presence of peroxidase (POD) to form a chromophore (quinoneimine dye), which may be quantitated at 500-505 nm. The intensity of red colour formed is directly proportional to the concentration of total cholesterol in the specimen and measured spectrophotometrically (Searcy, C. L. Diagnostic Biochemistry, 1969, McGraw Hill, New York; Ellefson, R. D.; Caraway, W. T. Fundamentals of clinical chemistry, 1976, Ed Tietz N W, 506-515.)
Triglycerides were estimated using the kit provided by Roche Diagnostics. Lipoprotein lipase hydrolyses triglycerides to yield glycerol and fatty acids. Glycerol kinase converts glycerol to glycerol-3-phosphate, which is oxidized by glycerol phosphate oxidase to dihydroxy acetone phosphate and hydrogen peroxide. In the presence of peroxidase, hydrogen peroxide oxidatively couples with 4-aminoantipyrine and 4-chloro phenol to produce red quinonimine dye. The intensity of red colour formed is directly proportional to the concentration of triglycerides in the specimen and is measured by photometrically (Wahlefeld, A. W.; Bergmeyer, H. U. Ed. Methods of enzymatic analysis, 2nd English edition, New York, N.Y., Academic press inc, 1831-1840.).
Serum (0.2 mL) and perchloric acid (1.0 mL) was digested at 180° C. for 1-1.5 h till the solution became colorless. The liberated inorganic phosphate (Pi) was measured by the method of Fiske and Subbarow (Fiske, C. H.; Subbarow, V. J. Biol. Chem. 1925, 66, 375.). 1 mL of 2.5% ammonium molybdate (prepared in 5 N sulphuric acid) and 0.5 mL reducing agent (4-amino naphthol sulphonic acid, 0.2%), sodium metabisulphite (2.4% w/v in distilled water) was added to the above tubes and mixed well. The reaction mixture was […] with 2.5 mL of triple distilled water and kept at 60° C. in water bath for 20 min. For standard, an appropriate amount of potassium dihydrogen phosphate dissolved in triple distilled water containing 2-10 μg phosphorous (Pi) was run simultaneously with the experiment tubes. The optical density of the blue colour was recorded at 620 nm against reagent blank. The values of Pi were converted into phospholipid by multiplying with 25 (a constant calibrated from Pi value of lecithin).

[2] = phospholipid, read-out: % Fall in lipid levels (Triton model) PL
[3] = total cholesterol, read-out: % Fall in lipid levels (Triton model) TC
[4] = triglycerides, read-out: % Fall in lipid levels (Triton model) TG

Row | SMILES | % Fall in blood glucose levels, 6 days (db/db mice) [%] | % Fall in blood glucose levels, 10 days (db/db mice) | inhibition in vivo at 100 mg/kg [1, 2] [%] | inhibition in vivo at 100 mg/kg [1, 3] [%] | inhibition in vivo at 100 mg/kg [1, 4] [%] | % Fall in lipid levels (Triton model) PL ([1]; phospholipid) [%] | % Fall in lipid levels (Triton model) TC ([1]; total cholesterol) [%] | % Fall in lipid levels (Triton model) TG ([1]; triglycerides) [%]
1 | CC(C)NCC(O)COc1ccc2c(=O)cc(-c3cc(O)cc(O)c3)oc2c1 (stereo not drawn) [Compound 49, 3′,5′-Dihydroxy-7-(2-hydroxy-3-iso-propylamino-propoxy)-flavone] | 9.38 | 20.8% and 20.5% | 28 | 32 | 32 | – | – | –
2 | COc1cc(-c2cc(=O)c3ccc(OCCCOc4ccc(C=C5SC(=O)NC5=O)cc4)cc3o2)cc(OC)c1OC [Compound 65, 7-{3-[4-(thiazolidin-2,4-dione-5-ylidinemethyl)-phenoxy]-propoxy}-3′,4′,5′-trimethoxy-flavone] | 19.1 | 21.4% | – | – | – | 6 | 20 | 3
3 | CC(C)(C)NCC(O)COc1ccc2c(=O)cc(-c3cc(OCc4ccccc4)cc(OCc4ccccc4)c3)oc2c1 (stereo not drawn) [Compound 34, 7-(3-tert-Butylamino-2-hydroxy-propoxy)-3′,5′-dibenzyloxy-flavone] | 26.4 | 57.1% | 18 | 21 | 9 | – | – | –
